Results published in ChEMBL document CHEMBL4411282, “Fragment-based drug discovery of triazole inhibitors to block PDEδ-RAS protein-protein interaction” (Eur J Med Chem, 2019).

System: A549
Test: Antiproliferative activity against human A549 cells harboring KRAS G12S point mutant after 72 hrs by SRB assay
Settings: A549, 72 h

IC50 [µM]	SMILES
6.4	c1ccc(Cn2c(-c3ccc(OC[C@H](C4CCNCC4)n4c(-c5ccccc5)nc5ccccc54)cc3)nc3ccccc32)cc1
17.1	COc1ccc(CSc2nnc(-c3ccc(OCC(=O)Nc4ccc(N(C)C)cc4)cc3)n2Cc2ccccc2)cc1
18.3	COc1ccc(CSc2nnc(-c3ccc(OCC(=O)Nc4cc(C)nn4C)cc3)n2Cc2ccccc2)cc1
24.1	COc1ccc(CCc2nnc(-c3ccc(OCC(=O)Nc4cnn(C)c4)cc3)n2Cc2ccccc2)cc1
10.3	CC(C)Cc1nnc(SCc2ccc(C(=O)Nc3ccc4ncccc4c3)cc2)n1Cc1ccccc1
19.3	COc1ccc(CSc2nnc(-c3ccc(OCC(=O)NC4CCCCC4)cc3)n2Cc2ccccc2)cc1
36	COc1ccc(CSc2nnc(-c3ccc(OCC(=O)Nc4cnn(C)c4)cc3)n2Cc2ccccc2)cc1
11.3	COc1ccc(CSc2nnc(-c3ccc(OCC(=O)Nc4cccnc4)cc3)n2Cc2ccccc2)cc1
> 50	CCC(Oc1ccc(-c2nnc(CCc3ccc(OC)cc3)n2Cc2ccccc2)cc1)C(=O)Nc1cnn(C)c1 (stereo not drawn)
32.6	CC(C)Cc1nnc(SCc2ccc(C(=O)NC3CCCCC3)cc2)n1Cc1ccccc1
> 50	COc1ccc(CCc2nnc(-c3ccc(OC(C)C(=O)Nc4cnn(C)c4)cc3)n2Cc2ccccc2)cc1 (stereo not drawn)
20.3	CC(C)Cc1nnc(SCc2ccc(C(=O)Nc3cccc(F)c3)cc2)n1Cc1ccccc1
> 50	COc1ccc(CCc2nnc(-c3ccc(OC(C)(C)C(=O)Nc4cnn(C)c4)cc3)n2Cc2ccccc2)cc1
